Reference: patent US6436921B1, “Carbapenem derivatives and a preparation method thereof” (Korea Institute of Science and Technology, priority 1997, dated 2002)
Values after ≈ are worked out from the molar mass of the structure shown.

How the values were obtained:
[1] = test system: Staphylococcus aureus 503; experiment: Antibacterial activity test (agar dilution MIC); assay type: cell-based; details: Staphylococcus aureus 503, agar; for MIC: read-out: Minimum inhibitory concentration
Description: (§1) Gram-positive Streptococcus and Staphylococcus and Gram-negative Escherichia coli, Pseudomonas, Salmonella, Klebsiella and Enterobacter were selected for the test. After the cells were diluted and cultured in agar, the compounds of the present invention were treated to obtain the minimum inhibitory concentration in the units of μg/ml.

[2] = test system: Pseudomonas aeruginosa 9027; experiment: Antibacterial activity test (agar dilution MIC); assay type: cell-based; details: Pseudomonas aeruginosa 9027, agar; for MIC: read-out: Minimum inhibitory concentration
Description: as §1

[3] = test system: Enterobacter cloacae 1321E; experiment: Antibacterial activity test (agar dilution MIC); assay type: cell-based; details: for MIC: read-out: Minimum inhibitory concentration
Description: as §1

[4] = test system: Klebsiella aerogenes 1522E; experiment: Antibacterial activity test (agar dilution MIC); assay type: cell-based; details: for MIC: read-out: Minimum inhibitory concentration
Description: as §1

[5] = test system: Streptococcus pyogenes 308A; experiment: Antibacterial activity test (agar dilution MIC); assay type: cell-based; details: for MIC: read-out: Minimum inhibitory concentration
Description: as §1

Escherichia coli 078 [6] = experiment: Antibacterial activity test (agar dilution MIC); assay type: cell-based; details: Escherichia coli 078, agar; for MIC: read-out: Minimum inhibitory concentration
Description: as §1

[7] = test system: Streptococcus pyogenes 77A; experiment: Antibacterial activity test (agar dilution MIC); assay type: cell-based; details: for MIC: read-out: Minimum inhibitory concentration
Description: as §1

[8] = test system: Pseudomonas aeruginosa 1771; experiment: Antibacterial activity test (agar dilution MIC); assay type: cell-based; details: Pseudomonas aeruginosa 1771, agar; for MIC: read-out: Minimum inhibitory concentration
Description: as §1

Escherichia coli 1507E = experiment: Antibacterial activity test (agar dilution MIC); assay type: cell-based; details: for MIC: read-out: Minimum inhibitory concentration
Description: as §1

[9] = test system: Streptococcus faecium MD8b; experiment: Antibacterial activity test (agar dilution MIC); assay type: cell-based; details: for MIC: Enterococcus faecium, read-out: Minimum inhibitory concentration
Description: as §1

[10] = test system: Staphylococcus aureus 285; experiment: Antibacterial activity test (agar dilution MIC); assay type: cell-based; details: Staphylococcus aureus 285, agar; for MIC: read-out: Minimum inhibitory concentration
Description: as §1

[11] = test system: Staphylococcus aureus SG511; experiment: Antibacterial activity test (agar dilution MIC); assay type: cell-based; details: for MIC: read-out: Minimum inhibitory concentration
Description: as §1

Klebsiella oxytoca 1082E = experiment: Antibacterial activity test (agar dilution MIC); assay type: cell-based; details: for MIC: read-out: Minimum inhibitory concentration
Description: as §1

Escherichia coli DC0 = experiment: Antibacterial activity test (agar dilution MIC); assay type: cell-based; details: for MIC: read-out: Minimum inhibitory concentration
Description: as §1

Salmonella typhimurium = experiment: Antibacterial activity test (agar dilution MIC); assay type: cell-based; details: for MIC: Salmonella enterica, read-out: Minimum inhibitory concentration
Description: as §1

[12] = test system: Pseudomonas aeruginosa 1771M; experiment: Antibacterial activity test (agar dilution MIC); assay type: cell-based; details: Pseudomonas aeruginosa, 1771M, read-out: Minimum inhibitory concentration
Description: as §1

Enterobacter cloacae P99 = experiment: Antibacterial activity test (agar dilution MIC); assay type: cell-based; details: for MIC: read-out: Minimum inhibitory concentration
Description: as §1

[13] = test system: Pseudomonas aeruginosa 1592E; experiment: Antibacterial activity test (agar dilution MIC); assay type: cell-based; details: for MIC: read-out: Minimum inhibitory concentration
Description: as §1

Escherichia coli TEM = experiment: Antibacterial activity test (agar dilution MIC); assay type: cell-based; details: for MIC: Escherichia coli, read-out: Minimum inhibitory concentration
Description: as §1

Escherichia coli DC2 = experiment: Antibacterial activity test (agar dilution MIC); assay type: cell-based
Description: as §1

[14] = Bioavailability test, subcutaneous injection to mice; assay type: in vivo
Escherichia coli 078 [15] = experiment: PD50 test using mice; assay type: in vivo; parameters: PD50: unit not given beside the values
From the text: (§2) This means that ⅓ of the amount of the compound 10 has the same effect as meropenem.
(§3) Streptococcus pyrogenes A 77 and Escherichia coli 078 were selected as gram-positive and gram-negative strains, respectively.

[16] = test system: Streptococcus pyrogenes A 77; experiment: PD50 test using mice; assay type: in vivo; parameters: PD50: unit not given beside the values
From the text: as §2, §3

[17] = target: DHP-I (renal dehydropeptidase-I) (Homo sapiens, UniProt P16444); experiment: in vitro
DHP-I (renal dehydropeptidase-I), sequence (P16444 17-385): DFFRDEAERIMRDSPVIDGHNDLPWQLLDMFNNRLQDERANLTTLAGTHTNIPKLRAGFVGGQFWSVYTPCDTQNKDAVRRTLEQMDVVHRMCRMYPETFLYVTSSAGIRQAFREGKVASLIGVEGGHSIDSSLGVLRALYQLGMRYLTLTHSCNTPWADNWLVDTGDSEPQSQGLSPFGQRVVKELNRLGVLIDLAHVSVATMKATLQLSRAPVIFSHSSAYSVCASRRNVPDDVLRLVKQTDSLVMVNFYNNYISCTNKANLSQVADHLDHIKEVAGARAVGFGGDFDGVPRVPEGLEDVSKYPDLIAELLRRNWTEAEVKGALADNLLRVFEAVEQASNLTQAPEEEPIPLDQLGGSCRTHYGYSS

renal enzyme (DHP-I) = renal enzyme (DHP-I) (Homo sapiens, UniProt P16444); details: FIG. 1
renal enzyme (DHP-I), sequence (P16444 17-385): as above

| SMILES | MIC [1] [µg/mL] | MIC [2] [µg/mL] | MIC [3] [µg/mL] | MIC [4] [µg/mL] | MIC [5] [µg/mL] | MIC (Escherichia coli 078 [6]) [µg/mL] | MIC [7] [µg/mL] | MIC [8] [µg/mL] | MIC (Escherichia coli 1507E) [µg/mL] | MIC [9] [µg/mL] | MIC [10] [µg/mL] | MIC [11] [µg/mL] | MIC (Klebsiella oxytoca 1082E) [µg/mL] | MIC (Escherichia coli DC0) [µg/mL] | MIC (Salmonella typhimurium) [µg/mL] | MIC [12] [µg/mL] | MIC (Enterobacter cloacae P99) [µg/mL] | MIC [13] [µg/mL] | MIC (Escherichia coli TEM) [µg/mL] | also measured |
| --- | --- | --- | --- | --- | --- | --- | --- | --- | --- | --- | --- | --- | --- | --- | --- | --- | --- | --- | --- | --- |
| C[C@@H](O)[C@H]1C(=O)N2C(C(=O)O)=C(S[C@@H]3CN[C@H](C(=O)NCCC(N)=O)C3)[C@H](C)[C@H]12 [Compound 1] | 0.098 (≈ 0.23 µM) | 0.391 (≈ 0.917 µM) | 0.025 (≈ 0.0586 µM) | 0.049 (≈ 0.115 µM) | 0.013 (≈ 0.0305 µM) | 0.025 (≈ 0.0586 µM) | 0.007 (≈ 0.0164 µM) | 0.781 (≈ 1.83 µM) | 0.025 (≈ 0.0586 µM) | 12.5 (≈ 29.3 µM) | 0.195 (≈ 0.457 µM) | 0.195 (≈ 0.457 µM) | 0.098 (≈ 0.23 µM) | 0.025 (≈ 0.0586 µM) | 0.049 (≈ 0.115 µM) | 0.391 (≈ 0.917 µM) | 0.049 (≈ 0.115 µM) | 0.391 (≈ 0.917 µM) | 0.025 (≈ 0.0586 µM) |  |
| CNC(=O)CCNC(=O)[C@@H]1C[C@H](SC2=C(C(=O)O)N3C(=O)[C@H]([C@@H](C)O)[C@H]3[C@H]2C)CN1 [Compound 2] | 0.195 (≈ 0.443 µM) | 0.781 (≈ 1.77 µM) | 0.025 (≈ 0.0568 µM) | 0.049 (≈ 0.111 µM) | 0.013 (≈ 0.0295 µM) | 0.049 (≈ 0.111 µM) | 0.013 (≈ 0.0295 µM) | 0.781 (≈ 1.77 µM) | 0.025 (≈ 0.0568 µM) | 12.5 (≈ 28.4 µM) | 0.781 (≈ 1.77 µM) | 0.391 (≈ 0.888 µM) | 0.098 (≈ 0.222 µM) | 0.049 (≈ 0.111 µM) | 0.049 (≈ 0.111 µM) | 0.391 (≈ 0.888 µM) | 0.049 (≈ 0.111 µM) | 0.781 (≈ 1.77 µM) | 0.025 (≈ 0.0568 µM) | MIC (Escherichia coli DC2; read-out: Minimum inhibitory concentration): 0.098 µg/mL (≈ 0.222 µM) |
| C[C@@H](O)[C@H]1C(=O)N2C(C(=O)O)=C(S[C@@H]3CN[C@H](C(=O)NCCC(=O)NCCO)C3)[C@H](C)[C@H]12 [Compound 3] |  |  |  |  |  |  |  |  |  |  |  |  |  |  |  |  |  |  |  | Minimum inhibitory concentration [1]: 0.195 µg/mL (≈ 0.414 µM); Minimum inhibitory concentration [2]: 1.563 µg/mL (≈ 3.32 µM); Minimum inhibitory concentration [3]: 0.025 µg/mL (≈ 0.0531 µM); Minimum inhibitory concentration [4]: 0.049 µg/mL (≈ 0.104 µM); Minimum inhibitory concentration (Escherichia coli DC2): 0.049 µg/mL (≈ 0.104 µM); Minimum inhibitory concentration [5]: 0.013 µg/mL (≈ 0.0276 µM); Minimum inhibitory concentration (Escherichia coli 078 [6]): 0.025 µg/mL (≈ 0.0531 µM); Minimum inhibitory concentration [7]: 0.007 µg/mL (≈ 0.0149 µM); Minimum inhibitory concentration [8]: 1.563 µg/mL (≈ 3.32 µM); Minimum inhibitory concentration (Escherichia coli 1507E): 0.025 µg/mL (≈ 0.0531 µM); Minimum inhibitory concentration [9]: 12.5 µg/mL (≈ 26.6 µM); Minimum inhibitory concentration [10]: 0.391 µg/mL (≈ 0.831 µM); Minimum inhibitory concentration [11]: 0.195 µg/mL (≈ 0.414 µM); Minimum inhibitory concentration (Klebsiella oxytoca 1082E): 0.098 µg/mL (≈ 0.208 µM); Minimum inhibitory concentration (Escherichia coli DC0): 0.049 µg/mL (≈ 0.104 µM); Minimum inhibitory concentration (Salmonella typhimurium): 0.049 µg/mL (≈ 0.104 µM); Minimum inhibitory concentration (Enterobacter cloacae P99): 0.049 µg/mL (≈ 0.104 µM); Minimum inhibitory concentration [13]: 1.563 µg/mL (≈ 3.32 µM); Minimum inhibitory concentration (Escherichia coli TEM; Escherichia coli TEM, agar): 0.025 µg/mL (≈ 0.0531 µM) |
| C[C@@H](O)[C@H]1C(=O)N2C(C(=O)O)=C(S[C@@H]3CN[C@H](C(=O)NCCS(N)(=O)=O)C3)[C@H](C)[C@H]12 [Compound 10] |  |  |  |  |  |  |  |  |  |  |  |  |  |  |  |  |  |  |  | half-life ([14]; mouse, in vivo, sc): 19.2 ± 2.4 min; AUC ([14]; mouse, in vivo, sc, AUC 0-3 hr): 11900 ± 1130 ng·h/mL; Cmax ([14]; mouse, in vivo, sc, read-out: Cmax): 16000 ± 960 ng/mL; Tmax ([14]; mouse, in vivo, sc, read-out: Tmax): ≤ 19.8 min; times as efficient as meropenem (bioavailability, Table 4) ([14]; versus meropenem): ca. 3 times; PD50 (Escherichia coli 078 [15]; Escherichia coli 078): 0.47; times more efficient than meropenem (PD50 test) (Escherichia coli 078 [15]; gram-negative strain, versus meropenem): 3 times; PD50 ([16]; Streptococcus pyrogenes A 77): 2.31; times more efficient than meropenem (PD50 test) ([16]; gram-positive strain, versus meropenem): 3 times; half-life [17]: > 300 min; stability against DHP-I (in words) (renal enzyme (DHP-I)): a little more stable than meropenem against DHP-I and markedly more stable than imipenem |
